Data from US20230293599A1, “BACTERIAL COMPOSITIONS WITH ANTI-INFLAMMATORY ACTIVITY” (Universiteit Gent, priority 2020, published 2023).

Each molecule was assayed on P. aeruginosa (assay: Biolog Phenotype Microarray PM1-2 growth on carbon sources). Conditions: not given.
Format: cell-based, Pseudomonas aeruginosa
Experimental: (§1) Using Phenotype Microarray (PM) panels (Biolog), the influence of 190 carbon sources on the growth of the potential probiotic species R. mucilaginosa, R. dentocariosa, R. gilardii, G. haemolysans, and common respiratory pathogens P. aeruginosa, and S. aureus was determined. PM1 and PM2 panels (Biolog) were inoculated according to the manufacturer's instructions. Growth curves were generated for 35 hours by measuring the absorbance at 590 nm using an EnVision (Perkin Elmer) plate reader.

Molecule	AUC of growth curve, P. aeruginosa
O=C1O[C@@H]([C@H](O)CO)[C@H](O)[C@H]1O [D-Galactonic-Acid-γ-Lactone]	397.9

Same assay, conditions: 35 hours, absorbance 590 nm, n = 1; cells without values AUC < 50

Molecule	AUC of growth curve, P. aeruginosa
C=C(CC(=O)O)C(=O)O [Itaconic Acid]	790.8
O=C(O)Cc1cccc(O)c1 [m-Hydroxy Phenyl Acetic Acid]	114.0
NCCO [2-Aminoethanol]	293.7
C[N+](C)(C)CC(O)CC(=O)[O-] (racemic) [D,L-Carnitine]	574.6
OC[C@@H](O)[C@H](O)[C@H](O)[C@@H](O)CO [Dulcitol]	72.0
CC(O)(CC(=O)O)C(=O)O (centres unmarked) [Citramalic Acid]	183.9

Each molecule was assayed on S. aureus (assay: not given). Conditions: not given.
Format: cell-based, Staphylococcus aureus
Experimental: as §1

Molecule	AUC of growth curve, S. aureus
Tween 20	214.4
CC(O)CC(=O)O (stereo not drawn) [β-Hydroxy Butyric Acid]	326.7
CCC(O)C(=O)O (stereo not drawn) [α-Hydroxy-Butyric Acid]	567.8
C[C@H](O)[C@@H](N)C(=O)O [D-Threonine]	87.8
O=C1CCC(C(=O)O)O1 (stereo not drawn) [α-Hydroxy-Glutaric Acid γ-Lactone]	112.1
N#C[C@H](O[C@@H]1O[C@H](CO[C@@H]2O[C@H](CO)[C@@H](O)[C@H](O)[C@H]2O)[C@@H](O)[C@H](O)[C@H]1O)c1ccccc1 [Amygdalin]	254.6
OC[C@H]1O[C@@H](O[C@@H]2[C@@H](CO)OC(O)(CO)[C@H]2O)[C@H](O)[C@@H](O)[C@H]1O (mixture of isomers) [Lactulose]	656.2
O=C(O)CCCO [γ-Hydroxy Butyric Acid]	343.7
OC[C@@H](O)[C@@H](O[C@@H]1O[C@H](CO)[C@H](O)[C@H](O)[C@H]1O)[C@H](O)[C@@H](O)CO [Lactitol]	338.8
OC[C@H]1O[C@H](OC[C@H]2O[C@H](O[C@]3(CO)O[C@H](CO)[C@@H](O)[C@@H]3O)[C@H](O)[C@@H](O)[C@@H]2O)[C@H](O)[C@@H](O)[C@H]1O [D-Rafinose]	282.1
OC[C@@H](O)[C@H](O)[C@@H](O)CO [Xylitol]	280.8
OC[C@H](O)C(O)[C@@H](O)CO [L-Arabitol]	165.7
OC[C@@H](O)[C@@H](O[C@H]1O[C@H](CO)[C@@H](O)[C@H](O)[C@H]1O)[C@H](O)[C@@H](O)CO [Maltitol]	783.0
OC[C@@H](O)C(O)[C@H](O)CO [D-Arabitol]	832.3
N[C@@H](C(=O)O)[C@@H](O)[C@H](O)[C@H](O)CO [D-Glucosaminic Acid]	267.3
OC[C@@]12OC[C@@H](O1)[C@@H](O)[C@@H](O)[C@@H]2O [Sedoheptulosan]	277.8
CO[C@@H]1O[C@H](CO)[C@@H](O)[C@H](O)[C@H]1O [β-Methyl-D-Galactoside]	358.9
CC(=O)N[C@@H](CO)[C@@H](O)[C@H](O)[C@H](O)CO [N-Acetyl-D-Glucosaminitol]	381.9
CC(O)CO (centres unmarked) [1,2-Propanediol]	150.0
C/C(=C/C(=O)O)C(=O)O [Citraconic Acid]	86.7
O[C@H]1[C@H](O)[C@@H](O)[C@H](O)[C@@H](O)[C@H]1O [m-inositol]	157.9
N[C@@H](CO)C(=O)O [L-Serine]	558.2
N[C@H](CO)C(=O)O [D-Serine]	76.2
O=C1O[C@H](CO)[C@@H](O)[C@H]1O [D-Ribono-1,4-Lactone]	100.2
O=C(O)CCCCCCCCC(=O)O [Sebacic Acid]	252.2

Molecule	AUC of growth curve, S. aureus
O=C(O)[C@H](O)[C@@H](O)C(=O)O [L-Tartaric Acid]	163.4
OC[C@H]1O[C@H](OC[C@H]2O[C@H](OC[C@H]3O[C@H](O[C@]4(CO)O[C@H](CO)[C@@H](O)[C@@H]4O)[C@H](O)[C@@H](O)[C@@H]3O)[C@H](O)[C@@H](O)[C@H]2O)[C@H](O)[C@@H](O)[C@H]1O [Stachyose]	324.4
COC1OCC(O)C(O)C1O [β-Methyl-D-Xyloside]	166.1
O=C(O)C(=O)O [Oxalic Acid]	463.7
Cc1cn([C@H]2C[C@H](O)[C@@H](CO)O2)c(=O)[nH]c1=O [Thymidine]	735.9
OC[C@H]1O[C@@H](O)[C@H](O)[C@H](O)[C@@H]1O [β-D-Allose]	122.9
COC(=O)CCC(=O)O [Mono Methyl Succinate]	532.1
CC(=O)N[C@H]1[C@H]([C@H](O)[C@H](O)CO)OC(O)(C(=O)O)C[C@@H]1O (some centres unmarked) [N-Acetyl-Neuraminic Acid]	647.5
Nc1ncnc2c1ncn2C1CC(O)C(CO)O1 (centres unmarked) [2-Deoxy-Adenosine]	419.1
O=CO [Formic Acid]	474.0
CC(=O)N[C@H]1C(O)O[C@H](CO)[C@H](O)[C@@H]1O (stereo partly drawn) [N-Acetyl-D-Galactosamine]	59.3
CCCC(=O)O [Butyric Acid]	1011.5
CCCC(=O)C(=O)O [α-Keto-Valeric Acid]	734.6
C[C@@H](O)[C@H](N)C(=O)O [L-Threonine]	754.3
CO[C@@H]1O[C@H](C(=O)O)[C@@H](O)[C@H](O)[C@H]1O [β-Methyl-D-Glucuronic Acid]	400.6
COC1OC(CO)C(O)C(O)C1O [α-Methyl-D-Mannoside]	264.2
OC[C@H]1O[C@@H](O[C@H]2[C@H](O)[C@@H](O)[C@@H](O)O[C@@H]2CO)[C@H](O)[C@@H](O)[C@H]1O [α-D-Lactose]	764.6
CCCCCC(=O)O [Caproic Acid]	908.9
O=C(O)[C@H](O)[C@@H](O)[C@H](O)[C@H](O)CO[C@H]1O[C@H](CO)[C@H](O)[C@H](O)[C@H]1O [Melibionic Acid]	270.3
C[C@H](N)C(N)=O [L-Alaninamide]	295.4
O=C(O)CO [Glycolic Acid]	344.8
Tween 80	468.6
O=P(O)(O)O[C@H]1O[C@H](CO)[C@@H](O)[C@H](O)[C@H]1O [D-Glucose-1-Phosphate]	189.0
CO[C@H]1O[C@H](CO)[C@@H](O)[C@H](O)[C@H]1O [α-Methyl-D-Glucoside]	281.5
O=C[C@@H](O)[C@H](O)[C@@H](O)[C@@H](O)CO [L-Glucose]	314.7

Same assay, conditions: 35 hours, absorbance 590 nm, n = 1; cells without values AUC < 50

Molecule	AUC of growth curve, S. aureus
Glycogen	197.7
Chondroitin Sulfate C	199.7
Gentiobiose	471.4
NCCCC[C@H](N)C(=O)O [L-Lysine]	331.6
CC(=O)O [Acetic Acid]	898.7
Mannan	154.5
Laminarin	192.8
Gelatin	52.4
